From patent US20020173491A1, “DAPD combination therapy with inosine monophosphate dehydrogenase inhibitor” (priority 2000, published 2002)
Like-named read-outs stand apart in the source and are kept apart here.

Key:
xxLAI strain of HIV-1 [1] = assay: microbe, parasite or virus in culture; format: cell-based; details: compound alone, any of the concentrations tested (RBV up to 100 μM, MPA up to 1 μM)
Method: Triplicate samples of compound were tested. MT2 cells were infected with xxLAI at a multiplicity of infection (MOI) of 0.03 for 3 hours at 37° C. in 5% CO2. The infected cells were plated at 3.0×10^4/well into a 96 well plated containing drug dilutions and incubated for 5 days at 37° C. in CO2. […] This method has been modified into a susceptibility assay and has been used in a variety of in vitro antiviral tests and is readily adaptable to any system with a lytic virus (Weislow, O. S., et. al. 1989). Using the absorption values of the cell controls as 100% protection and no drug, virus infected cells as 0% protection, a dose response curve is generated by plotting % protection on the Y axis and drug concentration on the X axis. From this curve EC50 values were determined.
Assays were performed in the MT2 cell line as described above in the XXT sensitivity assay section.
MPA was tested for activity against the xxLAI strain of HIV-1 in the laboratory adapted cell line MT2. Dilutions of MPA were made in cell culture media in a 96 well plate; the highest concentration tested was 1 μM. Triplicate samples of compound were tested. MT2 cells were infected with xxLAI at a multiplicity of infection (MOI) of 0.03 for 3 hours at 37° C. in 5% CO2. The infected cells were plated at 3.0×10^4/well into a 96 well plated containing drug dilutions and incubated for 5 days at 37° C. in CO2. The antiviral activity of MPA was determined using the XTT assay described above. This method has been modified into a susceptibility assay and has been used in a variety of in vitro antiviral tests and is readily adaptable to any system with a lytic virus (Weislow, O. S., et. al. 1989). Using the absorption values of the cell controls as 100% protection and no drug, virus infected cells as 0% protection, a dose response curve is generated by plotting % protection on the Y axis and drug concentration on the X axis. From this curve EC50 values were determined.
The concentrations of MPA used were 1, 0.5, 0.25, 0.1, and 0.01 μM. Assays were performed in the MT2 cell line as described in section 3.1.

[2] = XTT based cytotoxicity assay, PBMC; format: cell-based; details: human, PBMCs
Method: The XTT (2,3-bis(2-methoxy-4-nitro-5-sulfoxyphenyl)-5[(phenylamino)carbonyl]-2H-tetrazolium hydroxide) assay is an in vitro colorimetric cyto-protection assay. Reduction of XTT by mitochondria dehydrogenases results in the cleavage of the tetrazolium ring of XTT, yielding orange formazan crystals, which are soluble in aqueous solution. […] Cells were added to the plat at 3×10^4/well (MTX) and 2×10^5/well (PBMC) and the plates were incubated for 5 days at 37° C. in a 5% CO2 incubator (addition of the cells to the plate diluted the compound to a final high concentration of 1 mM). At the end of the 5-day incubation, XTT was added to each well and incubated at 37° C. for 3 hours followed by the addition of acidified isopropanol. The plate was read at 450 nm in a 96 well plate reader. A dose response curve was generated using the absorption values of cells grown in the absence of compound as 100% protection.
The XTT (2,3-bis(2-methoxy-4-nitro-5-sulfophenyl)-5[(phenylamino)carbonyl]-2H-tetrazolium hydroxide) assay is an in vitro colorimetric cyto-protection assay. Reduction of XTT by mitochondria dehydrogenases results in the cleavage of the tetrazolium ring of XTT, yielding orange formazan crystals, which are soluble in aqueous solution. […] The plate was read at 450 nm in a 96 well plate reader. […]

xxLAI strain of HIV-1 [3] = assay: microbe, parasite or virus in culture; format: cell-based; details: Human immunodeficiency virus 1, PBMC, 72 h
Method: In this assay, cell supernatants were incubated on microelisa wells coated with antibodies to HIV-1 p24 core antigen. Subsequently, anti-HIV-1 conjugate labeled with horseradish peroxidase was added. The labeled antibody bound to the solid phase antibody/antigen complexes previously formed. Addition of the tetramethylbenzidine substrate results in blue color formation. The color turned yellow when the reaction is stopped. The plates were then analyzed on a plate reader set at 490 nm. The absorbance is a direct measurement of the amount of HIV-1 produced in each well and a decrease in color indicates decreased viral production. […] PBMC were obtained from HIV-1 negative donors by banding on Ficoll gradients, stimulated with phytohemaglutinin (PHAP) for 48 hours prior to infection with HIV-1, and infected with virus for 4 hours at 37° C. at a MOI of 0.001. […] Plates were incubated for 3 days at 37° C. The concentration of virus in each well was determined using the NEN p24 assay. Using the absorption values of the cell controls as 100% protection and drug free, virus infected cells as 0% protection, a dose response curve is generated by plotting percent protection on the Y axis and drug concentration on the X axis. From this curve, EC50 values were determined.
Compound dilutions and assay conditions were as described above.
MPA was also tested for activity against the xxLAI strain of HIV-1 in PBMCs using a p24 based Elisa assay. In this assay, cell supernatants are incubated on microelisa wells coated with antibodies to HIV-1 p24 core antigen. Subsequently, anti-HIV-1 conjugate labeled with horse radish peroxidase is added. The labeled antibody binds to the solid phase antibody/antigen complexes previously formed. Addition of the tetramethylbenzidine substrate results in blue color formation. The color turns yellow when the reaction is stopped. The plates are then analyzed on a plate reader set at 490 nm. The absorbance is a direct measurement of the amount of HIV-1 produced in each well and a decrease in color indicates decreased viral production. Dilutions of MPA were made in cell culture media in a 96 well plate, the highest concentration of MPA tested was 1 μM. PBMC were obtained from HIV-1 negative donors by banding on Ficoll gradients, stimulated with phytohemaglutinin (PHAP) for 48 hours prior to infection with HIV-1, and infected with virus for 4 hours at 37° C. at a MOI of 0.001. Infected cells were seeded into 96 well plates containing 4-fold serial dilutions of MPA. Plates were incubated for 3 days at 37° C. The concentration of virus in each well was determined using the NEN p24 assay. Using the absorption values of the cell controls as 100% protection and drug free, virus infected cells as 0% protection, a dose response curve is generated by plotting % protection on the Y axis and drug concentration on the X axis. From this curve EC50 values were determined.
Compound dilutions and assay conditions were as described above. The concentrations of MPA used were 1, 0.5, 0.25, 0.1, and 0.01 μM.

[4] = XTT based cytotoxicity assay, MT2; details: human, MT2 T-cell line, MT2 cells
Method: The XTT (2,3-bis(2-methoxy-4-nitro-5-sulfoxyphenyl)-5[(phenylamino)carbonyl]-2H-tetrazolium hydroxide) assay is an in vitro colorimetric cyto-protection assay. Reduction of XTT by mitochondria dehydrogenases results in the cleavage of the tetrazolium ring of XTT, yielding orange formazan crystals, which are soluble in aqueous solution. The resultant orange solution was read in a spectrophotometer at a wavelength of 450nm. […] Cells were added to the plat at 3×10^4/well (MTX) and 2×10^5/well (PBMC) and the plates were incubated for 5 days at 37° C. in a 5% CO2 incubator (addition of the cells to the plate diluted the compound to a final high concentration of 1 mM). At the end of the 5-day incubation, XTT was added to each well and incubated at 37° C. for 3 hours followed by the addition of acidified isopropanol. The plate was read at 450 nm in a 96 well plate reader. A dose response curve was generated using the absorption values of cells grown in the absence of compound as 100% protection.
MPA was tested for cytotoxicity on the laboratory adapted T-cell line MT2 and in PBMCs using a XTT based assay. […] The resultant orange solution is read in a spectrophotometer at a wavelength of 450nm. […] The plate was read at 450 nm in a 96 well plate reader. […]

[5] = target: HIV reverse transcriptase (HIV-RT) (Human immunodeficiency virus type 1 group M subtype B, UniProt P04585); details: cited from earlier work
HCV = details: ribavirin alone; cited from earlier work
[6] = read-out: EC50, HIV-1 replication in PBMCs, compound alone, p24, 3 days

Row | Compound | activity against HIV-1 in MT2 cells (xxLAI strain of HIV-1 [1]) | CC50 at 5 days [2] [µM] | EC50 (xxLAI strain of HIV-1 [3]; [6]) [µM] | EC50 (xxLAI strain of HIV-1 [3]; read-out: median EC50, HIV-1 replication in PBMCs, compound alone, p24, 3 days) [µM] | CC50 at 5 days [4] [µM] | Ki [5] [µM] | effect on serum levels of HCV-RNA (HCV) | patients with serum amino transferase levels reduced to normal (HCV) [%]
1 | COc1c(C)c2c(c(O)c1C/C=C(\C)CCC(=O)O)C(=O)OC2 [MPA, 6-(4-hydroxy-6-methoxy-7-methyl-3-oxo-5-phthalanyl)-4-methyl-4-hexanoic acid] | not active | 4.5 | 0.095 | 0.095 | 5.7 |  |  | 
2 | Nc1nc2c(ncn2C2COC(COP(=O)(O)OP(=O)(O)OP(=O)(O)O)O2)c(=O)[nH]1 (stereo not drawn) [DXG-TP] |  |  |  |  |  | 0.019 |  | 
3 | NC(=O)c1ncn([C@@H]2O[C@H](CO)[C@@H](O)[C@H]2O)n1 [RBV, 1-β-D-ribofuranosyl-1,2,4-triazole-3-carboxamide] | not active | > 1000 | 20.5 |  | > 1000 |  | does not lower | 40
